Results published in patent US20220387457A1 (Qlaris Bio, Inc., priority 2020, published 2022).

Legend:
acid phosphatase = experiment: Conversion of CKLP1 by acid phosphatase, LC/MS-MS, pH 7.4; format: biochemical, human; conditions: up to 2 hours
Description: Conversion of CKLP1 (200 μM-5.0 mM) was examined by LC/MS-MS following incubation at pH 7.4 with either human alkaline phosphatase (ALP), acid phosphatase, or 5′-nucleotidase (2.01 nM-1.0 μM) for up to 2 hours.

[1] = tested on: normotensive hound dogs (IOP); experiment: Dose response of CKLP1 on IOP in hound dogs; format: in vivo, hound dog; conditions: for IOP lowering: 5 consecutive days, vs baseline
Description: In order to determine the optimal topical ocular dose of CKLP1 for subsequent pharmacokinetic studies, hound dogs (n=3) were treated with four different concentrations of CKLP1 (5 mM, 10 mM, 15 mM and 20 mM) once daily for 5 consecutive days. […] No difference in IOP reduction was noted between the 10 and 15 mM doses (p=0.57). To utilize the lowest dose concentration with effective IOP reduction, a 50 μL topical ocular administration of 10 mM CKLP1 was selected as the optimal dose for all subsequent experiments.
IOP was measured three times each day at times that corresponded to 1 hour, 4 hours and 23 hours post treatment. The average of the measurements at three time points on any given day was recorded as the daily IOP.
For the dose response study, baseline IOP measurements were obtained and recorded (three consecutive days prior to treatment). One eye of each dog was treated with a 50 μL topical ocular administration of 5 mM CKLP1 and the contralateral eye was treated with 10 mM CKLP1 once daily for 5 consecutive days. After 5 days, the eyes that received 5 mM CKLP1 was treated with 15 mM CKLP1 while the eye with 10 mM CKLP1 received 20 mM CKLP1. IOPs were measured every day at times corresponding to 1, 4, and 23 hours post treatment. For all experiments, the right eye was used as control while the left eye was selected as the treatment eye.

rats = experiment: 28-day intravenous administration of CKLP1 in rats; format: in vivo, rat
Description: Three groups of rats were intravenously administered different doses of CKLP1. The study was 28 days long with a 14-day recovery period.

[2] = tested on: hound dogs (systemic blood pressure); experiment: Systemic blood pressure in hound dogs during 61-day topical CKLP1; format: in vivo, hound dog; conditions: 10 mM CKLP1 topical once daily
Description: To evaluate the effect of IOP lowering long-term, hound dogs (n=5) were treated with 10 mM CKLP1 in one eye and vehicle (PBS) in the contralateral eye once daily for 61 consecutive days. […] On average, IOP was reduced by 18.9±1.3% (reduction of 3.0±0.5 mmHg; p<0.001) in all five hound dogs over the entire treatment period. Additionally, no significant change in systolic (baseline, 141.0±6.7; treatment, 138.9±9.5; p=0.56) or diastolic (baseline, 80.1±8.9; treatment, 78.1±5.9; p=0.76) blood pressure was observed during the treatment period (FIG. 7B). Hound dogs were also evaluated for eye redness, swelling of the eye or eyelids, unusual discharge from eye and overall food intake.
For the extended dose study, baseline IOPs were measured three times daily for 5 consecutive days. The average of the three measurements was recorded as the daily IOP and averaged over the 5 days for the final pre-treatment value. Following baseline IOP measurements, dogs (n=5) were treated with 10 mM CKLP1 in one eye, while the contralateral eye received vehicle (PBS). IOP was measured at least three times every week at times corresponding to 1, 4, and 23 hours post treatment. Blood pressure was measured three times each week at the 4 hour post treatment time point.

[3] = tested on: African green monkeys (systemic blood pressure); experiment: Systemic blood pressure in African green monkeys during 7-day topical CKLP1; format: in vivo, African green monkey; conditions: 10 mM CKLP1, 7 days
Description: To further validate the IOP lowering effects of CKLP1 in large animal models, one eye of five African green monkeys was treated with topical ocular administration of 10 mM CKLP1, while the contralateral eye received vehicle (PBS). Baseline IOP in control and treated eyes were 20.1±1.8 mmHg and 21.9±2.5 mmHg, respectively.
For treatment days, 10 mM CKLP1 (dissolved in PBS) was added to one eye of each monkey in a 50 μl topical ocular administration, once daily, for 7 consecutive days, while the contralateral eye received a 50 μl ocular administration of vehicle (PBS).

mice (IOP) = conditions: previously reported; cited from earlier work
[4] = tested on: 3D-glaucomatous human trabecular meshwork/Schlemm's canal tissue model; experiment: Outflow facility by perfusion in 3D-glaucomatous human trabecular meshwork/Schlemm's canal constructs; format: cell-based; conditions: levcromakalim 1 μM, TGF-β2 treated constructs, 4 donors, vs TGF-β2 (P<0.0001) or Y-27632 (P<0.05)
Description: (§1) Bioengineered 3D conventional outflow tract constructs using 4 donors (ages 47-91) were treated with […] (5 ng/mL) for 6 days. […] Protein expression of α-smooth muscle actin (α-SMA), CD31, endothelin-I, fibronectin, VE-cadherin, phospho-eNOS and total eNOS was analyzed via western blot. Cellular expression of α-SMA, fibronectin, phospho-eNOS and total eNOS was determined by immunocytochemistry and confocal microscopy. Statistical significance was determined by one-way ANOVA with a Tukey's multiple comparisons test, or by two-way ANOVA.

[5] = tested on: α-SMA, CD31, endothelin-I, fibronectin, VE-cadherin, phospho-eNOS and total eNOS; experiment: Protein expression (western blot, immunocytochemistry) in 3D HTM/SC constructs; format: cell-based, human; conditions: levcromakalim 1, 10 or 100 μM; Y-27632 10 μM
Description: as §1

SMILES	conversion of CKLP1 to levcromakalim (acid phosphatase)	IOP lowering, all concentrations ([1]; 5 mM, 10 mM, 15 mM and 20 mM, p≤0.01)	IOP lowering ([1]; 10 mM CKLP1 topical once daily) [mmHg]	IOP lowering ([1]; 15 mM CKLP1 topical once daily) [mmHg]	food consumption, body weight, body weight gains vs control (rats; IV 0.15, 1.5, 15 mg/kg/day, 28 days)	Clinical Signs (rats; IV CKLP1 0.15 mg/kg/day)	Clinical Signs (rats; IV CKLP1 1.5 mg/kg/day)	Clinical Signs (rats; IV CKLP1 15 mg/kg/day)	peripheral vasodilation (rats; following intravenous administration in rats)	dose with red skin forelimbs and hindlimbs, red pinnae, red scrotums (rats; male and female rats, IV) [mg/kg/day]	dose with red skin forepaws (rats; males and females, IV) [mg/kg/day]	eye color (rats; males, 15 mg/kg)	diastolic blood pressure during treatment ([2]; baseline 80.1±8.9, p=0.76) [mmHg]	systolic blood pressure during treatment ([2]; baseline 141.0±6.7, p=0.56) [mmHg]	diastolic pressure following treatment ([3]; baseline 68.1±6.0, p=0.13) [mmHg]	systolic pressure after treatment ([3]; baseline 118.7±12.0, p=0.6) [mmHg]	IOP lowered by (mice (IOP))	outflow facility (hydraulic conductivity) [4]	outflow facility (hydraulic conductivity) ([4]; listed as Leveromakalim)	expression of the cell adhesion proteins CD31 and VE-Cadherin [5]
CC1(C)Oc2ccc(C#N)cc2[C@@H](N2CCCC2=O)[C@@H]1OP(=O)(O)O [CKLP1]	not	significant IOP lowering	2.3±0.5	2.5±0.4	no difference	Red skin forelimbs and hindlimbs; red pinnae; red	Red skin forelimbs and hindlimbs; red skin	Red skin forelimbs and hindlimbs; red skin	induces peripheral vasodilation	≥ 0.15	≥ 1.5	Abnormal eye color	78.1±5.9	138.9±9.5	76.0±8.2	121.1±7.3	approximately 17%	–	–	–
CC1(C)Oc2ccc(C#N)cc2[C@@H](N2CCCC2=O)[C@@H]1O [Levcromakalim, levcromakalim, reference compound]	–	–	–	–	–	–	–	–	–	–	–	–	–	–	–	–	–	significantly improved outflow facility	significantly increased outflow facility	did not significantly affect
